Legend:
[1] = biological target: phencyclidine (PCP) receptor of the NMDA receptor complex; test: [3H]-TCP binding (displacement of specific [3H]TCP binding); parameters: species or system Sprague-Dawley rats; details: [3H]-TCP 2.5 nM; rat cortex/hippocampus synaptic membranes; 30 min, 37° C., pH 7.7; read-out: IC50 value, 50% inhibition of total specific [3H]TCP binding
Source text: The actions of compounds of formula I as an antagonist at the phencyclidine (PCP) receptor of the NMDA receptor complex can be shown using known in vitro tests, for example that described in Vignon et al., Brain Research, 280, 194-197 (1983). Vignon et al. disclose that tritiated N-(1-[2-thienyl]cyclohexyl)-3,4-[^3 H]-piperidine (also abbreviated as [^3 H]-TCP) binds to PCP binding sites (e.g. in rat brains) more strongly than PCP itself. […] [^3 H]-TCP thus provides a useful tool for measuring the binding affinities of compounds which bind to PCP receptors such as the PCP site in the NMDA receptor complex.
Specifically when it is desired to measure the binding affinity of a compound of formula I, a source of (brain) NMDA receptors is generated by preparing neuronal synaptic membranes from adult Sprague-Dawley rats. In brief, freshly dissected cortices and hippocampi were homogenized in 0.32 M sucrose (100 mg/ml). […]
The procedure for [^3 H]-TCP binding is adapted from Vignon et al. (1983). […] Non-specific binding is determined with 100 μM MK-801, a […] well known and characterized in the art as set forth for example, in European Patent Application 0 230 370, published July 29, 1987. […] Radioactivity is measured by liquid scintillation counting. The specific activity of the [^3 H]TCP is used to convert the radioactivity measured to concentration [^3 H]TCP bound. […]

[2] = tested on: neuronal damage in the hippocampus; test: gerbil ischemic model (bilateral carotid occlusion, neuronal damage in the hippocampus); type: in vivo, Mongolian gerbils; details: ip dose of 60 mg/kg
Protocol: Typically an animal is rendered ischemic, for example, for transient occlusion of the carotid artery. A test compound is then administered to said ischemic animal at or about the time of the ischemica event. The ability of the test compound to reduce or prevent neurological degeneration may then be assessed, for example, by sacrificing the animal, followed by conventional histological examination of suitable brain tissue. For example, the following is a description of a suitable test in vivo using the gerbil model.
When testing in vivo using the gerbil ischemic model, adult female Mongolian gerbils (50-70 g) are anesthetized with 2 to 3% halothane. The bilateral common carotid arteries at the neck are exposed and occluded with microaneurysm clips. After 10 min (unless specified), the clips are removed and the blood flow through the carotid arteries is restored and the skin is sutured. […] Gross behavioral observations along with motor activity are recorded for 2 hr on the first (24 hr) day following the occlusion. […]
Sections (7 micron) are evaluated from each brain. […] The average brain damage rating score for each group is recorded, and the damage scores of the drug treated group are compared to the vehicle-treated group using Wilcoxcon ranks sum test.

COc1cccc2c1CCC21NCc2ccccc21 (stereo not shown) [Example 18, 4-Methoxyspiro[indan-1,1'-(1,3-dihydroisoindole)]]
IC50 [1]: 5000 nM

c1ccc2c(c1)CNC21CCCc2sccc21 (stereo not shown) [Example 20, Spiro[4,5,6,7-tetrahydrobenzothiophene-4,1'-(1,3-dihydroisoindole)]]
IC50 [1]: 600 nM

CN1Cc2ccccc2C12CCCc1sccc12 (stereo not shown) [Example 21, 2'-Methylspiro[4,5,6,7-tetrahydrobenzothiophene-4,1'-(1,3-dihydroisoindole)]]
neuroprotective effect [2]: significant neuroprotective effect | overt toxic effects [2]: without any overt toxic effects

— patent publication US5098925A, “Spiro-dihydroisoindole compounds” (ICI Americas Inc., priority 1990, dated 1992)
